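Where inhibition never reached the appropriate level, the endpoint shown equals the highest concentration tested. Otherwise, values were interpolated linearly from a five-concentration, 48-hour dose response in 96-well plates. The concentration for 50% growth inhibition is given as GI50.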 Activity calls are given as the source filed them. No stated cut-off is given here; in the data, active = GI50 up to about 1.1 µM and inactive = higher.
Key:
Assay in all cases: NCI anticancer screen, dose series, 48 h
MDA-MB-435 = test system: MDA-MB-435
IGROV-1 = test system: IGROV-1
SF-539 = test system: SF-539
EKVX = test system: EKVX
ACHN = test system: ACHN
OVCAR-4 = test system: OVCAR-4
DU-145 = test system: DU-145
K562 = test system: K562
SK-MEL-5 = test system: SK-MEL-5
SF-295 = test system: SF-295
HL-60 = test system: HL-60
CCRF-CEM = test system: CCRF-CEM
M14 = test system: M14
HT-29 = test system: HT-29
TK-10 = test system: TK-10
SR = test system: SR
A549 = test system: A549
MDA-N = test system: MDA-N
NCI-H522 = test system: NCI-H522
OVCAR-3 = test system: OVCAR-3
786-0 = test system: 786-0
NCI-H226 = test system: NCI-H226
SNB-75 = test system: SNB-75
BT-549 = test system: BT-549
MOLT-4 = test system: MOLT-4
OVCAR-5 = test system: OVCAR-5
NCI-H23 = test system: NCI-H23
SF-268 = test system: SF-268
UACC-257 = test system: UACC-257
U-251 = test system: U-251
RXF 393 = test system: RXF 393
OVCAR-8 = test system: OVCAR-8
KM12 = test system: KM12
NCI-H460 = test system: NCI-H460
Hs-578T = test system: Hs-578T
T47D = test system: T47D
SNB-19 = test system: SNB-19
UO-31 = test system: UO-31
MDA-MB-231 = test system: MDA-MB-231
HCT-116 = test system: HCT-116
RPMI-8226 = test system: RPMI-8226
MCF7 = test system: MCF7
SK-OV-3 = test system: SK-OV-3
SW-620 = test system: SW-620
HOP-92 = test system: HOP-92
A498 = test system: A498
CAKI-1 = test system: CAKI-1
SK-MEL-28 = test system: SK-MEL-28
SK-MEL-2 = test system: SK-MEL-2
HCT-15 = test system: HCT-15
UACC-62 = test system: UACC-62
HOP-62 = test system: HOP-62
NCI/ADR-RES = test system: NCI/ADR-RES
SN12C = test system: SN12C
COLO 205 = test system: COLO 205
HCC 2998 = test system: HCC 2998
PC-3 = test system: PC-3
Malme-3M = test system: Malme-3M
LOX IMVI = test system: LOX IMVI

For `COc1cc(/C=N/Nc2nnc3c4ccccc4c4ncccc4c3n2)cc(OC)c1OC`, the GI50 (MDA-MB-435) was 5.12 µM (inactive), the GI50 (IGROV-1) was 1.04 µM (active) and the GI50 (SF-539) was 3.71 µM (inactive). The GI50 (EKVX) was 9.82 µM (inactive), the GI50 (ACHN) was 5.85 µM (inactive) and the GI50 (OVCAR-4) was 6.46 µM (inactive). The GI50 (DU-145) was 3.31 µM (inactive), the GI50 (K562) was 3.17 µM (inactive) and the GI50 (SK-MEL-5) was 4.31 µM (inactive). The GI50 (SF-295) was 3.49 µM (inactive), the GI50 (HL-60) was 3.62 µM (inactive) and the GI50 (CCRF-CEM) was 2.63 µM (inactive). For the same compound, the GI50 (M14) was 8.51 µM (inactive), the GI50 (HT-29) was 2.02 µM (inactive) and the GI50 (TK-10) was 4.28 µM (inactive). The GI50 (SR) was 3.37 µM (inactive), the GI50 (A549) was 2.79 µM (inactive) and the GI50 (MDA-N) was 1.61 µM (inactive). The GI50 (NCI-H522) was 2.47 µM (inactive), the GI50 (OVCAR-3) was 3.53 µM (inactive) and the GI50 (786-0) was 5.83 µM (inactive). For the same compound, the GI50 (NCI-H226) was 3.01 µM (inactive), the GI50 (SNB-75) was 3.82 µM (inactive) and the GI50 (BT-549) was 6.22 µM (inactive). The GI50 (MOLT-4) was 2.9 µM (inactive), the GI50 (OVCAR-5) was 5.13 µM (inactive) and the GI50 (NCI-H23) was 2.57 µM (inactive). For the same compound, the GI50 (SF-268) was 6.58 µM (inactive), the GI50 (UACC-257) was 1.97 µM (inactive) and the GI50 (U-251) was 4.21 µM (inactive). For the same compound, the GI50 (RXF 393) was 4.72 µM (inactive), the GI50 (OVCAR-8) was 2.23 µM (inactive) and the GI50 (KM12) was 9.29 µM (inactive). The GI50 (NCI-H460) was 0.728 µM (active), the GI50 (Hs-578T) was 4.74 µM (inactive) and the GI50 (T47D) was 1.21 µM (inactive). For the same compound, the GI50 (SNB-19) was 6.71 µM (inactive) and the GI50 (UO-31) was 3.39 µM (inactive).

For `CCN(CC)CCNC(=O)c1cc2cc(NC(=O)c3cc4cc(N)ccc4[nH]3)ccc2[nH]1`, the GI50 (MDA-MB-435) was 17.7 µM (inactive), the GI50 (MDA-MB-231) was 25.4 µM (inactive) and the GI50 (HCT-116) was 16 µM (inactive). The GI50 (SF-539) was 31.1 µM (inactive), the GI50 (EKVX) was 97.1 µM (inactive) and the GI50 (ACHN) was > 100 µM (inactive). For the same compound, the GI50 (OVCAR-4) was 8.05 µM (inactive), the GI50 (DU-145) was 19.6 µM (inactive) and the GI50 (K562) was 18.6 µM (inactive). For the same compound, the GI50 (RPMI-8226) was 19.3 µM (inactive), the GI50 (SF-295) was > 100 µM (inactive) and the GI50 (MCF7) was 15.1 µM (inactive). The GI50 (CCRF-CEM) was 9.53 µM (inactive), the GI50 (M14) was 26.1 µM (inactive) and the GI50 (HT-29) was 30.6 µM (inactive). For the same compound, the GI50 (TK-10) was > 100 µM (inactive), the GI50 (SK-OV-3) was 31.3 µM (inactive) and the GI50 (SR) was 5.9 µM (inactive). For the same compound, the GI50 (SW-620) was 33.3 µM (inactive), the GI50 (HOP-92) was 24 µM (inactive) and the GI50 (A498) was > 100 µM (inactive). The GI50 (A549) was 41 µM (inactive), the GI50 (MDA-N) was 33.9 µM (inactive) and the GI50 (CAKI-1) was 86.5 µM (inactive). For the same compound, the GI50 (NCI-H522) was 19.1 µM (inactive), the GI50 (786-0) was 35.8 µM (inactive) and the GI50 (SK-MEL-28) was > 100 µM (inactive). The GI50 (SK-MEL-2) was 29.1 µM (inactive), the GI50 (BT-549) was 28.1 µM (inactive) and the GI50 (MOLT-4) was 13.2 µM (inactive). For the same compound, the GI50 (OVCAR-5) was > 100 µM (inactive), the GI50 (NCI-H23) was 50.6 µM (inactive) and the GI50 (HCT-15) was greater than 100 µM. For the same compound, the GI50 (SF-268) was 31.4 µM (inactive), the GI50 (UACC-257) was 51.1 µM (inactive) and the GI50 (UACC-62) was 23.4 µM (inactive). The GI50 (U-251) was 25.6 µM (inactive), the GI50 (RXF 393) was 20.3 µM (inactive) and the GI50 (OVCAR-8) was 32.2 µM (inactive). The GI50 (HOP-62) was 55 µM (inactive), the GI50 (NCI/ADR-RES) was > 100 µM (inactive) and the GI50 (SN12C) was 39 µM (inactive). The GI50 (KM12) was 14.7 µM (inactive), the GI50 (NCI-H460) was 34.6 µM (inactive) and the GI50 (Hs-578T) was 35 µM (inactive). The GI50 (T47D) was 20.3 µM (inactive), the GI50 (SNB-19) was 49.3 µM (inactive) and the GI50 (UO-31) was > 100 µM (inactive). The GI50 (COLO 205) was 12.9 µM (inactive) and the GI50 (HCC 2998) was 17.1 µM (inactive).

For `CN1CCN([C@H]2C[C@H]3[C@@H]4CC=C5C[C@@H](N6CCCC6)CC[C@]5(C)[C@H]4CC[C@]3(C)[C@H]2O)CC1`, the GI50 (MDA-MB-435) was 26.1 µM (inactive), the GI50 (IGROV-1) was 67.8 µM (inactive) and the GI50 (MDA-MB-231) was 74.6 µM (inactive). The GI50 (HCT-116) was 22 µM (inactive), the GI50 (SF-539) was 16.2 µM (inactive) and the GI50 (EKVX) was > 100 µM (inactive). The GI50 (ACHN) was > 100 µM (inactive), the GI50 (OVCAR-4) was > 100 µM (inactive) and the GI50 (K562) was 14.9 µM (inactive). For the same compound, the GI50 (SK-MEL-5) was 18.8 µM (inactive), the GI50 (RPMI-8226) was 24.9 µM (inactive) and the GI50 (SF-295) was 48.4 µM (inactive). For the same compound, the GI50 (MCF7) was > 100 µM (inactive), the GI50 (HL-60) was 21.2 µM (inactive) and the GI50 (CCRF-CEM) was 38.6 µM (inactive). For the same compound, the GI50 (M14) was 15.6 µM (inactive), the GI50 (HT-29) was 8 µM (inactive) and the GI50 (TK-10) was > 100 µM (inactive). The GI50 (SK-OV-3) was > 100 µM (inactive), the GI50 (SR) was < 0.01 µM (active) and the GI50 (SW-620) was 33.4 µM (inactive). For the same compound, the GI50 (HOP-92) was 84.9 µM (inactive), the GI50 (A498) was 46.1 µM (inactive) and the GI50 (A549) was 37.8 µM (inactive). The GI50 (MDA-N) was 19 µM (inactive), the GI50 (CAKI-1) was > 10 µM (inactive) and the GI50 (PC-3) was 47.9 µM (inactive). For the same compound, the GI50 (Malme-3M) was 19.9 µM (inactive), the GI50 (NCI-H522) was > 100 µM (inactive) and the GI50 (OVCAR-3) was > 100 µM (inactive). For the same compound, the GI50 (786-0) was 38.4 µM (inactive), the GI50 (NCI-H226) was > 100 µM (inactive) and the GI50 (SK-MEL-28) was 20.6 µM (inactive). The GI50 (SNB-75) was > 100 µM (inactive), the GI50 (SK-MEL-2) was > 100 µM (inactive) and the GI50 (BT-549) was 95.5 µM (inactive). For the same compound, the GI50 (MOLT-4) was 23.7 µM (inactive), the GI50 (OVCAR-5) was 50.2 µM (inactive) and the GI50 (NCI-H23) was > 100 µM (inactive). For the same compound, the GI50 (HCT-15) was 38.4 µM, the GI50 (SF-268) was 32.7 µM (inactive) and the GI50 (UACC-257) was 23.2 µM (inactive). The GI50 (UACC-62) was 67.3 µM (inactive), the GI50 (U-251) was 59.2 µM (inactive) and the GI50 (RXF 393) was 10.7 µM (inactive). The GI50 (OVCAR-8) was 66.8 µM (inactive), the GI50 (HOP-62) was 51.1 µM (inactive) and the GI50 (NCI/ADR-RES) was > 100 µM (inactive). The GI50 (SN12C) was > 100 µM (inactive), the GI50 (KM12) was 56 µM (inactive) and the GI50 (NCI-H460) was 71.8 µM (inactive). The GI50 (LOX IMVI) was 19.6 µM (inactive), the GI50 (Hs-578T) was > 100 µM (inactive) and the GI50 (T47D) was > 100 µM (inactive). The GI50 (SNB-19) was 90.4 µM (inactive), the GI50 (UO-31) was 94.4 µM (inactive) and the GI50 (COLO 205) was 12.6 µM (inactive). For the same compound, the GI50 (HCC 2998) was 33.3 µM (inactive).
